Data: patent US20210330735A1, “COMPOSITIONS AND METHODS FOR THE TREATMENT OF TRAUMATIC OPTIC NEUROPATHY” (Stealth BioTherapeutics Corp, priority 2018, published 2021)
Values joined by “and” are separate entries in the source; they are usually repeats but may differ in a detail not shown here. Equal entries are not always repeated. Non-standard residues stand in square brackets, D forms with d. Residues, ends and D or L forms follow the SMILES beside them. No end group written: not given here. Dmt = Cc1cc(O)cc(C)c1C[C@H](N)C(=O)O

Assays:
[1] = test system: retinal ganglion cells (RGC); assay: RGC survival in sonication-induced TON (SI-TON) model, Example 2; type: in vivo, mice; conditions: two weeks following injury, early use, peptide 2 mg/kg SQ for 7 days
Text: SI-TON is induced by a microtip probe sonifier placed on the supraorbital ridge directly above the entrance of the optic nerve into the bony canal, as described in Tao, W. et al., Scientific Reports (2017) 7: 11779 (incorporated herein by reference). An ultrasonic pulse is then delivered to the optic nerve. After injury, the number of RGCs in the retina as well as visual function measured by PERG steadily decrease over a two-week period. […] The SI-TON model is capable of delivering a non-contact concussive injury to the optic nerve and induce TON in mice.
Two models for TON were utilized in this example: a novel sonication-induced TON (SI-TON) that closely recapitulates the clinical manifestations of indirect TON, and optic nerve crush-induced TON (ONC-TON) which reflects a more severe form of TON often resulting in axotomized nerve fibers and ruptured nervous vasculature. […]
(§1) A baseline recording of visual function by pattern electroretinogram (PERG) and imaging of the optic disc was performed prior to inducing SI-TON or ONC-TON. […] Euthanized animals were evaluated for RGC dropout by flat mount. […]
To test if a combinatorial strategy results in improved visual outcomes, a therapeutic agent, such as a TNF-alpha inhibitor (e.g., etanercept), D-Arg-2′6′-Dmt-Lys-Phe-NH2, or a combination of these pharmaceutical agents was assessed. […] Euthanized animals were evaluated for RGC dropout by flat mount. […]

[2] = test system: retinal ganglion cells (RGC); assay: RGC survival in optic nerve crush-induced TON (ONC-TON) model, Example 2; type: in vivo, rat; conditions: two weeks following injury, early use, peptide 2 mg/kg SQ for 7 days
Text: ONC-TON is induced by exposing the optic nerve of an adult rat and creating a small opening in the meninges of the nerve, as described in Solomon, A. et al., J. of Neurosci. Methods (1996) 70: 21-25, (incorporated herein by reference). The opening is created about 2-3 mm behind the eye globe. A glass dissector is introduced through the opening and is used to cut all the axons through the whole width of the nerve. Complete […] of the optic nerve axons is achieved, while retaining the continuity of the meninges and avoiding damage to the nerve's vascular supply. Transection can be confirmed by transillumination showing a complete gap in the continuity of the nerve axons, and by both morphological and electrophysiological criteria. The opening created in the ‘meningeal tube’ can be used to inject substances that may be of benefit in recovery, rescue and/or regeneration of the injured axons. […]
as §1
To test if a combinatorial strategy results in improved visual outcomes, a therapeutic agent, such as a TNF-alpha inhibitor (e.g., etanercept), D-Arg-2′6′-Dmt-Lys-Phe-NH2, or a combination of these pharmaceutical agents was assessed. […]

[3] = test system: retinal ganglion cells (RGCs); assay: Sequential administration study, PERG after US-TON (SI-TON), Example 4; type: in vivo, mice; conditions: 5 mg/kg 4-AP added to any formulation from two weeks post-injury, two and four weeks post treatment
Experimental: (§2) The sequential administration study was conducted as depicted in FIG. 4. A baseline visual function of retinal ganglion cells (RGCs) was obtained using pattern electroretinography (PERG) to record the electrical activity of RGCs, Optical Coherence Tomography (OCT) to evaluate the thickness of the Retinal Nerve Fiber Layer (RNFL), and Heidelberg Retina Topography (HRT) to evaluate subtle changes in the optic nerve caused by trauma. At day zero, US-TON (SI-TON) was induced by a microtip probe sonifier placed on the supraorbital ridge directly above the entrance of the optic nerve into the bony canal, as described in Example 2.
(§3) On the first day, six mice were administered either a bolus subcutaneous injection of 3 mg/kg ([…]) Etanercept (Enbrel™, Groups 1 and 2), 10 mg/kg (300 μg per 30 g mouse) D-Arg-2′6′-Dmt-Lys-Phe-NH2(MTP-131, Groups 3 and 4), or PBS (Groups 5 and 6), followed by daily injections of the drug formulation for a period of 3 days. On the sixth day, Groups 1 and 2 were administered a bolus subcutaneous injection of 10 mg/kg (300 μg per 30 g mouse) D-Arg-2′6′-Dmt-Lys-Phe-NH2; Groups 3 and 4 were administered a bolus subcutaneous injection of 3 mg/kg ([…]) Etanercept; and Groups 5 and 6 received PBS, followed by daily injections of the drug formulation for three days. […]

[4] = test system: Retinal Nerve Fiber Layer (RNFL) and Inner Plexiform Layer (IPL); assay: Sequential administration study, OCT thickness of RNFL and IPL after US-TON (SI-TON), Example 4; type: in vivo, mice; conditions: four weeks after treatments
Experimental: as §2, §3

[5] = test system: subjects suspected of having or diagnosed as having TON; assay: Treatment of subjects with TON, Example 1 (predicted); type: in vivo; conditions: for effect in combination with one or more additional therapeutic agents: compared with peptide or additional agent alone, expected; for severity of symptoms associated with TON: daily 1 mg/kg body weight, predicted
Experimental: Subjects suspected of having or diagnosed as having TON receive daily administrations of 1 mg/kg body weight of aromatic-cationic peptide, such as 2′6′-Dmt-D-Arg-Phe-Lys-NH2, Phe-D-Arg-Phe-Lys-NH2, or D-Arg-2′6′-Dmt-Lys-Phe-NH2, or a pharmaceutically acceptable salt thereof (such as an mono, bis, or tri-acetate salt, a tartrate salt, a fumarate salt, a mono, bis, or tri-HCl salt, a mono, bis, or tri-tosylate salt, or a mono, bis, or tri-trifluoroacetate salt) alone or in combination with one or more additional therapeutic agents for the treatment or prevention of TON. Peptides and/or additional therapeutic agents are administered orally, topically, systemically, intravenously, subcutaneously, intravitreally, intraperitoneally, or intramuscularly according to methods known in the art. Subjects will be evaluated weekly for the presence and/or severity of signs and symptoms associated with TON including, but not limited to, e.g., vision loss, blurred vision, RGC damage, scotoma, decreased color sensation, uveitis, optic neuritis, eye pain, optic nerve avulsion, optic nerve transection, optic nerve sheath hemorrhage, orbital hemorrhage, choroidal rupture, and commotio retinae. Treatments are maintained until such a time as one or more signs or symptoms of TON are ameliorated or eliminated.

[6] = test system: retinal ganglion cells (RGCs); assay: Safety and efficacy of acute intravitreal administration, PERG before and after SI-TON, Example 5; type: in vivo, C57BL/6 J mice
Experimental: To determine the safety of acute intravitreal administration of aromatic-cationic peptides in vivo, SI-TON was induced in 3-month-old C57BL/6 J mice with a Branson Digital Sonifier 450 (Branson) by a 3 mm microtip probe (Branson) in an acoustic soundproof enclosure chamber, as described in Example 2. Fifteen minutes following the induction of TON, a group of ten mice were administered 1.3 μL of 100 nM D-Arg-2′6′-Dmt-Lys-Phe-NH2 (MTP-131) intravitreally in the left eye (OS, treated). A different subset of mice was administered control PBS solution intravitreally in the left eye (OS, treated) followed by subcutaneous injection with 5 mg/kg D-Arg-2′6′-Dmt-Lys-Phe-NH2 fifteen minutes post-injury. A baseline recording of the mice visual function was recorded using electrophysiological recording of RGCs through PERG prior to SI-TON induction and the functional visual outcome of the mice was tested again 4 weeks post-injury.

[7] = test system: several mammalian cell types; conditions: energy-independent manner; cited from earlier work

etanercept
percent RGC survival [1]: 97.08% and 97.08±2.21% | percent RGC survival [2]: 48.94% and 48.94±1.94%

Nc1ccncc1 [4-AP, 4-aminopyridine]
RGC electrical activity measured by PERG [3]: significantly increased RGC electrical activity | RNFL and IPL thickness by OCT [4]: did not significantly improve

F[dR]FK-NH2
effect in combination with one or more additional therapeutic agents [5]: synergistic effects | severity of symptoms associated with TON [5]: reduced severity or elimination of one or more symptoms associated with TON

Cc1cc(O)cc(C)c1C[C@H](NC(=O)[C@H](N)CCCNC(=N)N)C(=O)N[C@@H](CCCCN)C(=O)N[C@@H](Cc1ccccc1)C(N)=O [D-Arg-2′6′-Dmt-Lys-Phe-NH2] (H-[dR][Dmt]KF-NH2)
safety of direct application to the eye ([6]; acute intravitreal injection, 1.3 μL of 100 nM): did not show evidence of toxicity | baseline electrophysiological recording of RGCs (PERG), treated vs control ([6]; uninjured baseline, left eye): substantially similar

2′6′-Dmt-D-Arg-Phe-Lys-NH2
effect in combination with one or more additional therapeutic agents [5]: synergistic effects | severity of symptoms associated with TON [5]: reduced severity or elimination of one or more symptoms associated with TON | penetration of the plasma membrane [7]: readily penetrates the plasma membrane
